Experimental data from patent US20160015770A1, “COMPOSITIONS FOR TREATMENT OF RETINAL DETACHMENT” (THE REGENTS OF THE UNIVERSITY OF MICHIGAN, priority 2013, published 2016).
“Also recorded” adds a separate entry of the source.

System: detached retina
Assay: Experimental retinal detachment, western blot of autophagy markers (Atg5, Atg5-12, LC3-II) in retina
Type: in vivo
Conditions: rat, 0.2 μg subretinal at time of detachment, 7 days, vs detached retinas alone
Description: All experiments were performed in accordance with the ARVO Statement for the Use of Animals in Ophthalmic and Vision Research and the guidelines established by the University Committee on Use and Care of Animals of the University of Michigan. Detachments were created in adult male Brown-Norway rats (300-400 g; Charles River Laboratories, Wilmington, Mass.) as described previously. Briefly, rodents were anesthetized with a 50:50 mix of ketamine/xylazine, and pupils were dilated with topical phenylephrine (2.5%) and tropicamide (1%). A 20-gauge microvitreoretinal blade was used to create a sclerotomy 2 mm posterior to the limbus, carefully avoiding lens damage. A subretinal injector (Glaser, 32-gauge tip; BD Ophthalmic Systems, Franklin Lakes, N.J.) was introduced through the sclerotomy into the vitreous cavity and then through a peripheral retinotomy into the subretinal space. Sodium hyaluronate (10 mg/mL, Healon OVD; Abbott Medical Optics, Uppsala, Sweden) was slowly injected to detach the neurosensory retina from the underlying RPE. In all experiments, approximately one third to one half of the neurosensory retina was detached. Detachments were created in the left eye. The right eye served as the control, with all the steps of the procedure performed except for introduction of the subretinal injector and injection of the sodium hyaluronate. […]
Retinas from experimental eyes with detachment (detached portion of retina only) and control eyes without detachment were dissected from the RPE-choroid, homogenized, and lysed in buffer containing 10 mM HEPES (pH 7.6), 0.5% IgEPal, 42 mM KCl, 1 mM phenylmethylsulfonyl fluoride, 1 mM EDTA, 1 mM EGTA, 1 mM dithiothreitol, 5 mM MgCl2, and one tablet of protease inhibitors per 10 mL buffer (Complete Mini; Roche Diagnostics GmbH, Madison, Wis.). […] The protein concentration of the supernatant was then determined (DC Protein Assay kit; Bio-Rad Laboratories, Hercules, Calif.). The protein samples were separated on SDS-polyacrylamide gels (Tris-HCl Ready Gels; Bio-Rad Laboratories). […]

## CCCC[C@@H](C=O)NC(=O)[C@H](CC(C)C)NC(=O)OCc1ccccc1 [calpeptin]
  Atg5 level in retina: increase in Atg5; also recorded: significantly more Atg5
